Data set [1] concerns larvae of the mustard beetle (Phaedon cochleariae). The data set can be described thus: Phaedon cochleariae spray test (PHAECO). Type of data set: in vivo. The note with it: application rate 100 g/ha; Chinese cabbage leaf discs; after 7 days. How it is done:
Phaedon cochleariae—Spray Test (PHAECO)
(§1) Solvents: 78.0 parts by weight of acetone
(§2) • 1.5 parts by weight of dimethylformamide Emulsifier: alkylaryl polyglycol ether
(§3) To produce a suitable preparation of active compound, 1 part by weight of active compound is dissolved using the stated parts by weight of solvent and made up with water comprising an emulsifier concentration of 1000 ppm until the desired concentration is reached. To produce further test concentrations, the preparation is diluted with emulsifier-containing water.
After 7 days, the efficacy in % is determined. 100% means that all of the beetle larvae have been killed; 0% means that none of the beetle larvae have been killed.

In data set [2] the test system is caterpillars of the armyworm (Spodoptera frugiperda). The data set can be described thus: Spodoptera frugiperda spray test (SPODFR). The note with it: application rate 100 g/ha; maize leaf discs; after 7 days. It is filed as in vivo. How it is done:
Spodoptera frugiperda—Spray Test (SPODFR)
as §1, §2, §3
Leaf discs of maize (Zea mays) are sprayed with an active compound preparation of the desired concentration and, after drying, populated with caterpillars of the armyworm (Spodoptera frugiperda).
After 7 days, the efficacy in % is determined. 100% means that all of the caterpillars have been killed; 0% means that none of the caterpillars have been killed.

Data set [3] deals with greenhouse red spider mite (Tetranychus urticae), OP-resistant. The data set can be described thus: Tetranychus urticae spray test, OP-resistant (TETRUR). The settings on record: application rate 100 g/ha; bean leaf discs; after 6 days. It is filed as in vivo. As to the method:
Tetranychus urticae—Spray Test, OP-Resistant (TETRUR)
as §1, §2, §3
Discs of bean leaves (Phaseolus vulgaris) which are infested by all stages of the greenhouse red spider mite (Tetranychus urticae) are sprayed with an active compound preparation of the desired concentration.
After 6 days, the efficacy in % is determined. 100% means that all of the spider mites have been killed; 0% means that none of the spider mites have been killed.

Data set [4] has as its system green peach aphid (Myzus persicae). The data set can be described thus: Myzus persicae spray test (MYZUPE). The note with it: application rate 100 g/ha; Chinese cabbage leaf discs; after 6 days. Type of data set: in vivo. How it is done:
Myzus persicae—spray test (MYZUPE)
Solvents: 78 parts by weight of acetone
as §2, §3
Discs of Chinese cabbage leaves (Brassica pekinensis) infested by all stages of the green peach aphid (Myzus persicae) are sprayed with an active compound preparation of the desired concentration.
After 6 days, the efficacy in % is determined. 100% here means that all of the aphids have been killed; 0% means that no aphids have been killed.

In data set [5] the test system is adult houseflies (Musca domestica). The data set can be described thus: Musca domestica test (MUSCDO). It is filed as in vivo. The settings on record: application rate 100 ppm; after 2 days. As to the method: Musca domestica Test (MUSCDO) Solvents: dimethyl sulphoxide To produce a suitable preparation of active compound, 10 mg of active compound are mixed with 0.5 ml of dimethyl sulphoxide, and the concentrate is diluted with water to the desired concentration. Vessels containing a sponge treated with sugar solution and the active compound preparation of the desired concentration are populated with 10 adult houseflies (Musca domestica). After 2 days, the kill in % is determined. 100% means that all of the flies have been killed; 0% means that none of the flies have been killed.

Data set [6] concerns cattle ticks (Boophilus microplus) Parkhurst strain, SP-resistant. The data set can be described thus: Boophilus microplus dip test (BOOPMI Dip). The note with it: application rate 100 ppm, assessed after 7 days. It is filed as in vivo. As to the method:
Boophilus microplus—Dip Test (BOOPMI Dip)
Test animals: cattle ticks (Boophilus microplus) Parkhurst strain, SP-resistant
(§4) Solvent: dimethyl sulphoxide
10 mg of active compound are dissolved in 0.5 ml of dimethyl sulphoxide. To prepare a suitable formulation, the active compound solution is diluted with water to the concentration desired in each case.
This active compound preparation is pipetted into tubes. 8-10 adult engorged female cattle ticks (Boophilus microplus) are transferred into a further tube with holes. The tube is immersed into the active compound formulation, and all ticks are completely wetted. After the liquid has run out, the ticks are transferred on filter discs into plastic dishes and stored in a climate-controlled room.
(§5) The activity is assessed after 7 days by laying of fertile eggs. Eggs whose fertility is not visible from the outside are stored in a climate-controlled cabinet until the larvae hatch after about 42 days. An efficacy of 100% means that none of the ticks has laid any fertile eggs; 0% means that all eggs are fertile.

For data set [7], the system named is engorged adult female cattle ticks (Boophilus microplus). The data set can be described thus: Boophilus microplus injection test (BOOPMI Inj). It is filed as in vivo. The note with it: application rate 20 μg/animal; injection into abdomen; assessed after 7 days. How it is done:
Boophilus microplus Injection Test (BOOPMI Inj)
as §4
To produce a suitable preparation of active compound, 10 mg of active compound are mixed with 0.5 ml of solvent, and the concentrate is diluted with solvent to the desired concentration.
1 μl of the active compound solution is injected into the abdomen of 5 engorged adult female cattle ticks (Boophilus microplus). The animals are transferred into dishes and kept in a climate-controlled room.
as §5

The subject of data set [8] is L1 larvae of the Australian sheep blowfly (Lucilia cuprina). The data set can be described thus: Lucilia cuprina test (LUCICU). It is filed as in vivo. The settings on record: application rate 100 ppm; minced horsemeat; after 2 days. As to the method:
Lucilia cuprina Test (LUCICU) Solvent: dimethyl sulphoxide To produce a suitable preparation of active compound, 10 mg of active compound are mixed with 0.5 ml of dimethyl sulphoxide, and the concentrate is diluted with water to the desired concentration. About 20 L1 larvae of the Australian sheep blowfly (Lucilia cuprina) are transferred into a test vessel containing minced horsemeat and the active compound preparation of the desired concentration. After 2 days, the kill in % is determined. 100% means that all of the larvae have been killed; 0% means that none of the larvae have been killed.

Data set [9] concerns Tick nymphs (Amblyomma hebraeum). The data set can be described thus: Amblyomma hebaraeum test (AMBYHE), tick nymph immersion. It is filed as in vivo. The settings on record: application rate 100 ppm; immersion one minute; after 42 days. How it is done: Amblyomma hebaraeum Test (AMBYHE) Solvent: dimethyl sulphoxide To produce a suitable preparation of active compound, 10 mg of active compound are mixed with 0.5 ml of dimethyl sulphoxide, and the concentrate is diluted with water to the desired concentration. Tick nymphs (Amblyomma hebraeum) are placed into perforated plastic beakers and immersed in the desired concentration for one minute. The ticks are transferred on filter paper into a Petri dish and stored in a climate-controlled cabinet. After 42 days, the kill in % is determined. 100% means that all of the ticks have been killed; 0% means that none of the ticks have been killed.

The subject of data set [10] is adult cat fleas (Ctenocephalides felis). The data set can be described thus: Ctenocephalides felis oral test (CTECFE). Type of data set: in vivo. The settings on record: application rate 100 ppm in citrated cattle blood; after 2 days. How it is done:
Ctenocephalides felis-Oral Test ([…]) Solvent: dimethyl sulphoxide To produce a suitable preparation of active compound, 10 mg of active compound are mixed with 0.5 ml of dimethyl sulphoxide. Dilution with citrated cattle blood gives the desired concentration. About 20 unfed adult cat fleas (Ctenocephalides felis) are placed into a chamber which is closed at the top and bottom with gauze. A metal cylinder whose bottom end is closed with a parafilm is placed onto the chamber. The cylinder contains the blood/active ingredient preparation, which can be imbibed by the fleas through the parafilm membrane. After 2 days, the kill in % is determined. 100% means that all of the fleas have been killed; 0% means that none of the fleas have been killed.

The subject of data set [11] is southern root-knot nematode (Meloidogyne incognita). The data set can be described thus: Meloidogyne incognita test (MELGIN). Type of data set: in vivo. The note with it: application rate 20 ppm; lettuce; after 14 days. As to the method: Meloidogyne incognita Test (MELGIN) Solvent: 125.0 parts by weight of acetone To prepare a suitable active compound preparation, 1 part by weight of active compound is mixed with the stated amount of solvent and the concentrate is diluted with water to the desired concentration. Vessels are filled with sand, active compound solution, an egg/larvae suspension of the southern root-knot nematode (Meloidogyne incognita) and lettuce seeds. The lettuce seeds germinate and the plants develop. On the roots, galls are formed. After 14 days, the nematicidal efficacy in % is determined by the formation of galls. 100% means that no galls have been found; 0% means that the number of galls on the treated plants corresponds to the untreated control.

A short description of data set [12]: log P determination by HPLC on reversed-phase column (C18), EEC Directive 79/831 Annex V.A8. The settings on record: method a): Agilent 1100 LC, Zorbax Eclipse Plus C18, acetonitrile/water with formic acid, gradient 10-95% in 4.25 min, 55° C. It is filed as physicochemical. How it is done:
Agilent 1100 LC system; 50*4.6 Zorbax Eclipse Plus C18 1.8 micron; mobile phase A: acetonitrile (0.1% formic acid); mobile phase B: water (0.09% formic acid); linear gradient from 10% acetonitrile to 95% acetonitrile in 4.25 min, then 95% acetonitrile for a further 1.25 min; oven temperature 55° C.; flow rate: 2.0 ml/min. Mass detection is carried out via an Agilend MSD system.
^a)Unless indicated otherwise, the following method was used to determine the log P values and masses: The determination of the given log P values was carried out in accordance with EEC Directive 79/831 Annex V.A8 by HPLC (High Performance Liquid Chromatography) on a reversed-phase column (C18). Agilent 1100 LC system; 50*4.6 Zorbax Eclipse Plus C18 1.8 micron; mobile phase A: acetonitrile (0.1% formic acid); mobile phase B: water (0.09% formic acid); linear gradient from 10% acetonitrile to 95% acetonitrile in 4.25 min, then 95% acetonitrile for a further 1.25 min; oven temperature 55° C.; flow rate: 2.0 ml/min. Mass detection is carried out via an Agilend MSD system. ^b)Note for the alternative method for determining log P values and masses: The stated log P values were determined in accordance with EEC Directive 79/831 Annex V.A8 by HPLC (High Performance Liquid Chromatography) using a reversed-phase column (C18). Waters ACQUITY UPLC-MS system; 2.1*50 mm Zorbax Eclipse Plus C18 1.8 μm 600 bar; injection volume: 0.5 ul about 1000 ppm; mobile phase A: acetonitrile (0.1% formic acid); mobile phase B: water (0.085% formic acid); linear gradient from 10% acetonitrile to 95% acetonitrile in 1.5 min, then 95% acetonitrile for a further 0.5 min; oven temperature 60° C.; flow rate: 1.0 ml/min. Mass detection is carried out via a Waters SQD system.

Consider `CC(F)C(=O)NCc1cc(-c2cnn(-c3c(C(F)(F)F)c(C(F)(F)C(F)(F)F)nn3C)c2)ccc1F` (racemic) [Ic-22], for which the efficacy in % is 100% in data set [1], 83% in [2], 100% in data set [3] and 90% in data set [4].
`CC(=O)NCc1cc(-c2cnn(-c3c(C(F)(F)F)c(C(F)(F)C(F)(F)F)nn3C)c2)ccc1F` [Ic-4]: the kill in % in [5], in [8], in data set [9] and in [10] was 100% each time. Moreover, the “efficacy (no laying of fertile eggs)” value in [6] and in data set [7] was 100% each time. Besides, the values for the efficacy in % in [1], in data set [2] and in data set [3] were 100%, 83% and 100%, respectively.
As to `CC(=O)NCc1cncc(-c2cnn(-c3c(C(F)(F)F)c(C(F)(F)C(F)(F)F)nn3C)c2)c1` [Ic-8], the efficacy in % in [1] was determined as 100%; in data set [3], 90%; in [4], 90%.
On to `Cn1nc(C(F)(F)C(F)(F)F)c(C(F)(F)F)c1-n1cc(-c2ccc(F)c(CNC(=O)Cc3cccs3)c2)cn1` [Ic-7], for which, in data set [11], the “nematicidal efficacy in % (formation of galls)” value (“nematicidal efficacy in %” below) was 90%. For the same compound, the “efficacy (no laying of fertile eggs)” value in [7] stood at 100%. The efficacy in % is listed as 100% in [1], 83% in [2] and 100% in data set [3]. In addition, the kill in % worked out at 100% in data set [8] and 90% in [10].
As to `Cn1nc(C(F)(F)C(F)(F)F)c(C(F)(F)F)c1-n1cc(-c2ccc(F)c(CNC(=O)c3ccsc3)c2)cn1` [Ic-23], in [11], the “nematicidal efficacy in %” value is recorded as 90%. In addition, in data set [7], the “efficacy (no laying of fertile eggs)” value is reported as 100%. In data set [1], this compound returned an efficacy in % of 100%. This compound also yielded a kill in % in data set [8] of 95%.
In the case of `CCC(=O)NCc1cccc(-c2ncn(-c3c(C(F)(F)F)c(C(F)(F)C(F)(F)F)nn3C)n2)c1` [Ie-1], the “nematicidal efficacy in %” value in data set [11] is given as 90%.
With `CCC(=O)NCc1cncc(-c2cnn(-c3c(C(F)(F)F)c(C(F)(F)C(F)(F)F)nn3C)c2)c1` [Ic-26], the efficacy in % was determined as 100% in data set [1], 83% in [2], 90% in data set [3] and 100% in [4].
As to `CCC(=O)NCc1cc(-c2cnn(-c3c(C(F)(F)F)c(C(F)(F)C(F)(F)F)nn3C)c2)ccc1F` [Ic-2], the kill in % in data set [5], in data set [8], in [9] and in data set [10] was 100% each time. Besides, the “efficacy (no laying of fertile eggs)” value in [6] and in data set [7] was 100% each time. In addition, the efficacy in % in data set [1], in data set [2] and in data set [3] was 100% each time.
For the compound `Cn1nc(C(F)(F)C(F)(F)F)c(C(F)(F)F)c1-n1cc(-c2cccc(CNC(=O)C3CC3)c2)cn1` [Ic-17], the kill in % in [5] worked out at 100%; in [8], 100%; in data set [9], 90%; in [10] it was 100%. The “efficacy (no laying of fertile eggs)” value in data set [6] and in [7] was 100% in each case. Also, the efficacy in % in data set [1] and in data set [3] was 100% each time.
With `Cn1nc(C(F)(F)C(F)(F)F)c(C(F)(F)F)c1-n1cc(-c2cccc(CNC(=O)OC(C)(C)C)c2)cn1` [Ic-18, tert-butyl {3-[2′-methyl-5′-(pentafluoroethyl)-4′-(trifluoromethyl)-2′H-1,3′-bipyrazol-4-yl]benzyl}carbamate], the chromatographic logP in data set [12] was 4.74. In addition, the “efficacy (no laying of fertile eggs)” value in [7] is 100%. Moreover, the efficacy in % in [4] came to 100%.
With `CCC(=O)NC(C)c1cccc(-c2cnn(-c3c(C(F)(F)F)c(C(F)(F)C(F)(F)F)nn3C)c2)c1` (stereo not shown) [Ic-33], the efficacy in % in [1] is reported as 100%; in data set [3], 100%; in data set [4] it was 90%.

For orientation: chromatographic logP means lipophilicity estimated from chromatographic retention.

The values above are taken from patent US9675070B2 (BAYER CROPSCIENCE AG, priority 2013, dated 2017).
